Laboratory results reported in US6481153B1, “Turf additive formulation for reduction of localized dry spots due to water repellency” (Milliken & Company, priority 2001, dated 2002).

System: not listed separately
Assay: hydrophobic sand humic acid removal test
Conditions: formulation diluted 42 parts water:1 part; 2 ml on 3 g humic acid coated sand; dried 60° C. 24 hours; 10 ml distilled water passed through; absorbance at 620 nm vs humic acid calibration curve
Experimental: Initially, a calibrated stock solution measurement curve for humic acid itself was generated for comparison purposes with tested humic acid removal samples. Thus, a 5000 ppm Humic Acid (purchased from Fluka Chemika) stock solution was prepared by dissolving 0.5 grams of Humic acid in 100 milliliters of water. Further standard solutions were prepared by serial dilution of the 5000 ppm sandard stock solution. The absorbance of each solution was measured at 620 nm on a Beckman Model DU 650 Spectrophotometer and a plot of absorbance versus concentration provided the Humic
The Examples, listed above, both inventive and comparative, were then each individually diluted with water (42 parts water:1 part example formulation). Two milliliters of each diluted example was then placed into the open end of a 19 inch clear plastic tube containing 3 grams of the above specific humic acid coated sand. One end was then plugged by a two-layer cheese cloth square of 1.5×1.5 cm and then the tube was situated vertically with the plugged end lower. The solutions were allowed to pass through the sand and were collected after passing through the plug. The sand was then placed in an oven at 60° C. for 24 hours to remove any residual moisture. The sand (3 grams) was again packed into a 19 inch clear plastic tube plugged at one end with the cheese cloth plug. Ten ml of distilled water was then passed through the sand and collected. The absorbance at 620 nm of the distilled water sample was then measured and compared to the humic acid calibration curve (from the Table, above) to determine the amount of humic acid removed from the coated sand. This test is, for the context of this invention, is the definition of “hydrophobic sand humic acid removal test”.

Compound | ppm Removed (Removal of Humic acid from Sand) [ppm]
O=C([O-])CCCCCCCCC(=O)[O-].[K+].[K+] [Example 4, Potassium sebacate] | 789.78
TPSA Di-TEA Salt [Example 8] | 246.46
TPSA Dipotassium Salt [Example 6] | 837.52
TPSA Mono-TEA Salt [Example 7] | 872.40
fully neutralized n-octenyl succinic anhydride sulfanilic sodium salt [Example 9] | 1015.15

System: grass
Assay: not given
Conditions: in vivo; cited from earlier work

Compound | phytotoxicity to grass
[Na+].[OH-] [sodium hydroxide] | highly phytotoxic
